What all share (experiment): NCI-60 cell line screen, 48 h
In test [1] the test system is CAKI-1.
Test [2] deals with EKVX.
Test [3] has as its system HCC 2998.
Test [4] has as its system HCT-15.
Test [5] deals with HT-29.
Test [6] relates to IGROV-1.
Test [7] has as its system K562.
In test [8] the test system is LOX IMVI.
Test [9] concerns M14.
Test [10] concerns MCF7.
The subject of test [11] is MDA-N.
For test [12], the system named is MOLT-4.
Test [13] deals with NCI-H23.
For test [14], the system named is SF-268.
The test system of test [15] is SK-MEL-28.
Test [16] has as its system SR.
The test system of test [17] is UACC-257.
Test [18] deals with NCI/ADR-RES.
In test [19] the test system is UO-31.
For test [20], the system named is BT-549.

The structures appear in SMILES notation.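 These data come from cells grown in 96-well plates and exposed to compound for 48 hours at five concentrations. GI50 = concentration required for 50% inhibition of growth.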 The source made the active and inactive calls. No stated cut-off is given here; in the data, active = GI50 up to about 1.1 µM and inactive = higher.

With `COc1cccc(Nc2nc3c([nH]2)c(=O)n(C)c(=O)n3C)c1`, the GI50 is > 10 µM (inactive) in test [1]; > 10 µM (inactive) in test [2]; > 10 µM (inactive) in test [3]; more than 10 µM in [4]; > 10 µM (inactive) in test [5]; > 10 µM (inactive) in test [6]. Moreover, the GI50 in test [7], in [8], in [9], in test [10], in test [11] and in test [12] was > 10 µM (inactive) in each case. The GI50 in test [13], in test [14], in test [15], in test [16] and in test [17] was > 10 µM (inactive) in each case.

Regarding `O=C(/C=C/c1ccc(O)cc1)c1ccc2c(c1)OCO2`, the GI50 in test [1] is 4.56 µM (inactive); in test [2], 36.2 µM (inactive); in test [3], 20.8 µM (inactive); in test [4], 26.1 µM; in [5], 13.4 µM (inactive); in test [6] it was 15.5 µM (inactive). The GI50 in [7] is 20.6 µM (inactive); in test [8] it was 18.7 µM (inactive); in test [9], 18.5 µM (inactive); in test [11], 24 µM (inactive); in [12], 13.5 µM (inactive); in test [13], 18.2 µM (inactive). For the same molecule, the GI50 in test [18] is 25.1 µM (inactive); in test [14], 23.8 µM (inactive); in [15] it was 20.9 µM (inactive); in test [16], 10.2 µM (inactive); in [17], 18.6 µM (inactive); in [19], 18.1 µM (inactive).

In the case of `COc1c(-c2cc(C)c(Cl)c(=O)[nH]2)c(O)c(OC)c2occc12`, the GI50 was > 100 µM (inactive) in test [1]; > 100 µM (inactive) in test [2]; > 100 µM (inactive) in test [3]; more than 100 µM in test [4]; > 100 µM (inactive) in test [5]; > 100 µM (inactive) in test [6]. Further, the GI50 in [7], in test [8], in [9], in test [10], in [11] and in [12] was > 100 µM (inactive) in each case. Also, the GI50 is > 100 µM (inactive) in test [13]; > 100 µM (inactive) in test [18]; 97.1 µM (inactive) in test [14]; > 100 µM (inactive) in [15]; 81.8 µM (inactive) in [16]; > 100 µM (inactive) in test [17]. For the same molecule, the GI50 in [19] is 38.5 µM (inactive).

Regarding `C=CCN1C(=O)/C(=C/c2ccccc2)N=C1SC/C=C/C`, the GI50 is 51.3 µM (inactive) in test [20]; > 100 µM (inactive) in test [1]; 28.3 µM (inactive) in test [3]; 47.5 µM in test [4]; > 100 µM (inactive) in test [6]; 0.0146 µM (active) in test [7]. The GI50 is 49.1 µM (inactive) in test [8]; 71.1 µM (inactive) in [9]; 33.1 µM (inactive) in [10]; 58.7 µM (inactive) in [13]; 49.4 µM (inactive) in test [18]; 57.9 µM (inactive) in test [14]. For the same molecule, the GI50 in test [15] is 69.3 µM (inactive); in test [16] it was 6.67 µM (inactive); in test [17], 28.3 µM (inactive); in [19], 39.9 µM (inactive).

Regarding `Cc1ccc(S(=O)(=O)Nn2c(S)c(C#N)c(-c3ccc(Cl)cc3)c(C#N)c2=O)cc1`, the GI50 in [20] is 17.3 µM (inactive); in test [1] it was 32.7 µM (inactive); in test [2] it was 32.9 µM (inactive); in test [3], 38.8 µM (inactive); in test [4], 25.9 µM; in test [6], 20.6 µM (inactive). Besides, the GI50 in test [7] was 38.6 µM (inactive); in test [8], 29.9 µM (inactive); in test [9], 38.1 µM (inactive); in test [10], 44.6 µM (inactive); in test [12] it was 24.7 µM (inactive); in test [13], 30 µM (inactive). Further, the GI50 is 27.5 µM (inactive) in test [18]; 31.2 µM (inactive) in test [15]; 29.7 µM (inactive) in test [16]; 45.3 µM (inactive) in [17]; 19.1 µM (inactive) in test [19].

Regarding `O=C1CC(c2ccccc2)[S+]([O-])c2ccccc2N1` (stereo unspecified), the GI50 in test [20] is > 100 µM (inactive); in test [1] it was > 100 µM (inactive); in test [2] it was > 100 µM (inactive); in test [4] it was more than 100 µM; in [5] it was > 100 µM (inactive); in test [6] it was > 100 µM (inactive). In addition, the GI50 in [7], in [8], in test [9], in [10], in test [12] and in test [13] was > 100 µM (inactive) throughout. The GI50 in [18] is > 100 µM (inactive); in test [14], > 100 µM (inactive); in test [15] it was > 100 µM (inactive); in test [16], 65.2 µM (inactive); in test [17], 23.1 µM (inactive); in [19] it was > 100 µM (inactive).

Take `NS(=O)(=O)c1ccc(NC(=S)NC=C2C(=O)c3ccccc3C2=O)cc1`: the GI50 in test [1] was 86.5 µM (inactive); in test [2] it was > 100 µM (inactive); in test [3], 38.3 µM (inactive); in [4], 38.9 µM; in [6] it was 23.3 µM (inactive); in test [7] it was 35.8 µM (inactive). Further, the GI50 in [8] was > 100 µM (inactive); in test [9] it was > 100 µM (inactive); in test [10] it was 17.9 µM (inactive); in test [11], > 100 µM (inactive); in [12], 61.9 µM (inactive); in test [13], > 100 µM (inactive). Further, the GI50 in [14] is 36.5 µM (inactive); in [15] it was > 100 µM (inactive); in [16], 42 µM (inactive); in [17], > 100 µM (inactive); in test [19], 22.6 µM (inactive).

With `O=c1[nH]c(=O)n(C2CC(O)C(CO)O2)cc1OC/C=C/Cc1ccccc1` (stereo unspecified), the GI50 in test [20] was > 100 µM (inactive); in test [1], > 100 µM (inactive); in [2], > 100 µM (inactive); in test [4], more than 100 µM; in [5] it was > 100 µM (inactive); in test [6], > 100 µM (inactive). Also, the GI50 in test [7], in test [8], in test [9], in [10], in test [12] and in test [13] was > 100 µM (inactive) in each case. For the same molecule, the GI50 in [18], in [14], in [15], in [16], in [17] and in test [19] was > 100 µM (inactive) throughout.

Take `CCOC(=O)C(Cc1ccc2c(c1)CCC2)Cc1ccc2c(c1)CCC2`: the GI50 was > 100 µM (inactive) in test [1]; 91 µM (inactive) in [2]; 95.9 µM (inactive) in [3]; more than 100 µM in test [4]; 45.9 µM (inactive) in test [5]; > 100 µM (inactive) in test [6]. In addition, the GI50 in test [7] was 26.5 µM (inactive); in test [8], 20.7 µM (inactive); in test [9], > 100 µM (inactive); in test [10], 45.4 µM (inactive); in test [11], 98.4 µM (inactive); in test [12], 16.9 µM (inactive). In addition, the GI50 in test [13] was 69 µM (inactive); in test [18] it was 73.1 µM (inactive); in test [14], > 100 µM (inactive); in test [15] it was > 100 µM (inactive); in test [16], 25.1 µM (inactive); in [17], 54.5 µM (inactive). For the same molecule, the GI50 in test [19] is 78 µM (inactive).

In the case of `COc1cc(C2=NNC(=O)c3ccccc3N2c2nc(-c3cccs3)nc3ccc(Br)cc23)cc(OC)c1OC`, the GI50 in test [20] was 32.8 µM (inactive); in test [1] it was 15.3 µM (inactive); in test [2], 13 µM (inactive); in [4] it was 4.38 µM; in test [5], 7.73 µM (inactive); in test [6] it was 10.8 µM (inactive). In addition, the GI50 in test [9] was 17.1 µM (inactive); in [10] it was 2.33 µM (inactive); in test [13], 7.11 µM (inactive); in test [18] it was 4.91 µM (inactive); in [14], 8.91 µM (inactive); in test [15], 13.3 µM (inactive). Also, the GI50 in test [17] was 21.5 µM (inactive); in test [19] it was 16.1 µM (inactive).

Consider `O=C(Nc1ccc(Cl)cc1)NS(=O)(=O)c1c(-c2ccccc2)oc2ccccc2c1=O`, for which the GI50 in [1] is 52.1 µM (inactive); in [2] it was > 100 µM (inactive); in test [3] it was 54.2 µM (inactive); in [4] it was 50.6 µM; in [5], 57.8 µM (inactive); in test [6], 83 µM (inactive). Also, the GI50 in test [7] was 48 µM (inactive); in [8], 9.25 µM (inactive); in test [11], 44.7 µM (inactive); in [12], 98.6 µM (inactive); in test [13], 67 µM (inactive); in test [18] it was 86.3 µM (inactive). The GI50 was > 100 µM (inactive) in test [14]; > 100 µM (inactive) in test [15]; 24.2 µM (inactive) in test [16]; > 100 µM (inactive) in test [17]; 38.5 µM (inactive) in [19].

Consider `COC(=O)CCC(=O)c1ccc2c(c1)CC1(C2)Cc2ccc(C(=O)CCC(=O)OC)cc2C1`, for which the GI50 in test [2] was > 100 µM (inactive); in test [3] it was > 100 µM (inactive); in test [4], more than 100 µM; in test [5], > 100 µM (inactive); in [6] it was > 100 µM (inactive); in test [7], 29.9 µM (inactive). The GI50 in [8] was > 100 µM (inactive); in test [9] it was 66.5 µM (inactive); in test [10], 44.1 µM (inactive); in test [11], 73.1 µM (inactive); in test [12], 52 µM (inactive); in test [13] it was 59.7 µM (inactive). The GI50 was 37.4 µM (inactive) in test [18], 17 µM (inactive) in test [16], 85.1 µM (inactive) in test [17] and 30.5 µM (inactive) in test [19].

Values taken from ChEMBL document CHEMBL1201862, “PubChem BioAssay data set” (2004).
